According to paper PMC11054573, “Identification of Ureidocoumarin-Based Selective Discoidin Domain Receptor 1 (DDR1) Inhibitors via Drug Repurposing Approach, Biological Evaluation, and In Silico Studies” (Pharmaceuticals, 2024):
Where two headings read alike, the source gives them in different places. Each block holds one compound with its values, some of them ahead of it.

Tests used:
DDR1 [1] = molecular target: T1, DDR1 (Homo sapiens, UniProt Q08345); assay: RBC radiometric HotSpot kinase assay, DDR1; details: for inhibition at 10 µM: read-out: % Inhibition at 10 μM (SEM) DDR1
T1 sequence (Q08345 19-913): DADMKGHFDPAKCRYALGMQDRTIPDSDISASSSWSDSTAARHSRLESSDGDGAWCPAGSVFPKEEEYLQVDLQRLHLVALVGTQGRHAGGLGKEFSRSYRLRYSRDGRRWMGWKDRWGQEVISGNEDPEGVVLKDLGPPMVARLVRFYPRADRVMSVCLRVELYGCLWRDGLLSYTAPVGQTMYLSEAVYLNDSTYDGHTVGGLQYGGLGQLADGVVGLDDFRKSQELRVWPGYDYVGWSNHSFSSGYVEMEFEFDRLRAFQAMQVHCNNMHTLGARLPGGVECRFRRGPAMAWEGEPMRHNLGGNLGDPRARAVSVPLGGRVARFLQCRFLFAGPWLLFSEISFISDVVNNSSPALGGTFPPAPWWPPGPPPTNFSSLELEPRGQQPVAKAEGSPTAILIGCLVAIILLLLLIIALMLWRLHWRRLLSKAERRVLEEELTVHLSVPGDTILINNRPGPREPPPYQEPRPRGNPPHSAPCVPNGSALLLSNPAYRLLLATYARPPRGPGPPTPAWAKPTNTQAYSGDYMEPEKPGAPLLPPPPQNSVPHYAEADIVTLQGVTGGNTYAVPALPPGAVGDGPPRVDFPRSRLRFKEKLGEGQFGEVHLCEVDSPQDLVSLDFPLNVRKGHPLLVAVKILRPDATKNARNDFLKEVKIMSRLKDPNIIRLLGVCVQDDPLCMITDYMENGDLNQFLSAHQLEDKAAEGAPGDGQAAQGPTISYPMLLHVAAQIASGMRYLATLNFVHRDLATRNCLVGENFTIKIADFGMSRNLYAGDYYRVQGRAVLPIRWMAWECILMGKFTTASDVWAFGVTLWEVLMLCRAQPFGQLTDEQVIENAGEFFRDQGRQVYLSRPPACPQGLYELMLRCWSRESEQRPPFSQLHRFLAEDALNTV
Experimental: (§7) All compounds in this study were tested against DDR1 and DDR2 at a 10 µM dose at Reaction Biology Corporation (RBC, Malvern, PA, USA) employing the radiometric HotSpot Kinase assay protocol (Table 1).

DDR2 = molecular target: T2, DDR2 (Homo sapiens, UniProt Q16832); assay: RBC radiometric HotSpot kinase assay, DDR2; details: for inhibition at 10 µM: read-out: % Inhibition at 10 μM (SEM) DDR2
T2 sequence (Q16832 22-855): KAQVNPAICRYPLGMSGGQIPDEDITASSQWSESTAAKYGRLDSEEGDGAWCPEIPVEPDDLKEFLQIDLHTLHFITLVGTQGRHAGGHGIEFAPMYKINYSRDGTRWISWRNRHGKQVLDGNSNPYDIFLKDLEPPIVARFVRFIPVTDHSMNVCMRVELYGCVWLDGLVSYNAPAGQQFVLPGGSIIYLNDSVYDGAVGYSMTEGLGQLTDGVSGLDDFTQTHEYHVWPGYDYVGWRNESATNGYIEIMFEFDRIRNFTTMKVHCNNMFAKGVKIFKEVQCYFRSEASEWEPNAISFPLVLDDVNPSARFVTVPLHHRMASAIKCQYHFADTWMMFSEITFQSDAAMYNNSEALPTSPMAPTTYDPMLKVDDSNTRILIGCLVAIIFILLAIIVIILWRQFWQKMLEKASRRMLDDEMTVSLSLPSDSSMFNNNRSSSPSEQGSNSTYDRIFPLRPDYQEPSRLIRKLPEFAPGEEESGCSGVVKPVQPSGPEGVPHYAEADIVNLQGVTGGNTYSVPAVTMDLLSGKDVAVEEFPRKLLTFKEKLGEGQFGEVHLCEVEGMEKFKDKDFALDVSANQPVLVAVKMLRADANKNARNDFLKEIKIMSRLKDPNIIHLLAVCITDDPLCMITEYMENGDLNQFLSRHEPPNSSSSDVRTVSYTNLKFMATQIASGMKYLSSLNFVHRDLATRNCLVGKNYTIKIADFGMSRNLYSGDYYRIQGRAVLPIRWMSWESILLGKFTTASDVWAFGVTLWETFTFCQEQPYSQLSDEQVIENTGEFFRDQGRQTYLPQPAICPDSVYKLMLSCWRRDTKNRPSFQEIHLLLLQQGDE
Experimental: as §7

c-Kit kinase = molecular target: T3, c-Kit kinase (Homo sapiens, UniProt P10721); assay: Biochemical kinase profile (23 oncogenic kinases), c-Kit; details: 10 μM compound, 10 μM ATP, single-dose duplicate
T3 construct: purchased Reaction Biology Corporation (RBC)
T3 sequence (P10721 26-976): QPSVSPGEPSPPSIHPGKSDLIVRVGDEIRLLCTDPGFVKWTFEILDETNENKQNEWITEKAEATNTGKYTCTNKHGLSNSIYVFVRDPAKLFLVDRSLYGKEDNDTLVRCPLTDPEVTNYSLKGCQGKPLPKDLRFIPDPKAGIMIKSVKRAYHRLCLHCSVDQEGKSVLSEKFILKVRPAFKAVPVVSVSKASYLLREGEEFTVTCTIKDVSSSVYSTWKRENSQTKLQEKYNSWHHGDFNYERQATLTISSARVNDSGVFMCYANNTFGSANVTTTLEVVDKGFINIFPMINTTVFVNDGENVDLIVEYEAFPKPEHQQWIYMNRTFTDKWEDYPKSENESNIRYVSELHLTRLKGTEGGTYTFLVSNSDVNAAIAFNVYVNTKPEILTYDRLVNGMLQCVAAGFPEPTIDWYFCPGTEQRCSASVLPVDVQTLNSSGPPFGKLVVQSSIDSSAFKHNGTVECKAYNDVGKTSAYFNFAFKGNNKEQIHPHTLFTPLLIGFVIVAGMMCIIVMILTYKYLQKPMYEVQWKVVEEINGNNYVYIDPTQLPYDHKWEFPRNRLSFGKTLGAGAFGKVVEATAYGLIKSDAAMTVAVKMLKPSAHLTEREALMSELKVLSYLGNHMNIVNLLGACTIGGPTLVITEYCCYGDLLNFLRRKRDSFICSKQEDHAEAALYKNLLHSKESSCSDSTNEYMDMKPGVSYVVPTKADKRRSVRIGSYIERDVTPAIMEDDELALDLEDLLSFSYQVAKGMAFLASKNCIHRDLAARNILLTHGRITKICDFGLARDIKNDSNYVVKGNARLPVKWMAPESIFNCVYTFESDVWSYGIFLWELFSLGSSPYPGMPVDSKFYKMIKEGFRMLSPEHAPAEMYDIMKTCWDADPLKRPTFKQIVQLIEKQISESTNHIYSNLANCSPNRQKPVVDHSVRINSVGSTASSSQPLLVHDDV
Experimental: (§1) These tested kinases were selected based on common off targets for several DDR1/2 kinase inhibitors.
(§2) Reaction Biology Corporation (RBC) Kinase HotSpot^SM service was adopted for biochemical evaluation of the target compounds against DDR1 and DDR2 kinases along with the kinase profile of compound 3q according to the reported assay protocol.
(§3) Figure 5 Inhibition percentages exerted by compound 3q (10 µM) over a panel of 23 oncogenic kinases. Compound 3q was tested in a single-dose duplicate mode, and the reactions were carried out at 10 μM ATP.

TrkA kinase = molecular target: T4, TrkA kinase (Homo sapiens, UniProt P04629); assay: Biochemical kinase profile (23 oncogenic kinases), TrkA; details: 10 μM compound, 10 μM ATP, single-dose duplicate
T4 construct: purchased Reaction Biology Corporation (RBC)
T4 sequence (P04629 33-796): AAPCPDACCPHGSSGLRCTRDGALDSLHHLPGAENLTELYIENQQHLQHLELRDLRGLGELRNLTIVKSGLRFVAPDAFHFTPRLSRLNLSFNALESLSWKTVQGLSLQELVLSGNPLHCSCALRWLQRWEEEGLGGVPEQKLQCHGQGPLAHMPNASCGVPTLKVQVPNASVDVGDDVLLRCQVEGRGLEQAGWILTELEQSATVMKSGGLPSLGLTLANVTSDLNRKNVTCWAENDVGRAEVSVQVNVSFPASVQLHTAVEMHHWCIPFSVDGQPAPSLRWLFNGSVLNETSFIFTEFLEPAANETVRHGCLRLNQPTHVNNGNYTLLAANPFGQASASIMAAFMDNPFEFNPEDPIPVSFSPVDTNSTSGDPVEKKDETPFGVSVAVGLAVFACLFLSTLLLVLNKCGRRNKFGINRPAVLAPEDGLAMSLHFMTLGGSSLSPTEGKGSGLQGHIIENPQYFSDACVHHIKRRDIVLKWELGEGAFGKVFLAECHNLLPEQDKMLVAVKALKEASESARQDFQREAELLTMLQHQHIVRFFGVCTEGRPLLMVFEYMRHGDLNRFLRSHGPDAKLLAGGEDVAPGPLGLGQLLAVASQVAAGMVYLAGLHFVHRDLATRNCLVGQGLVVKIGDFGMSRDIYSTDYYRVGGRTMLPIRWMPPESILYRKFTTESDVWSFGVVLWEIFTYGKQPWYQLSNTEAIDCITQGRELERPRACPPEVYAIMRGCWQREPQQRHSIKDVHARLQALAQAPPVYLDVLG
Experimental: as §1, §2, §3

ABL1 kinase = molecular target: T5, ABL1 kinase (Homo sapiens, UniProt P00519); assay: Biochemical kinase profile (23 oncogenic kinases), ABL1; details: 10 μM compound, 10 μM ATP, single-dose duplicate; read-out: % inhibition ABL1 kinase (and rest of tested kinases)
T5 construct: purchased Reaction Biology Corporation (RBC)
T5 sequence (P00519 whole entry): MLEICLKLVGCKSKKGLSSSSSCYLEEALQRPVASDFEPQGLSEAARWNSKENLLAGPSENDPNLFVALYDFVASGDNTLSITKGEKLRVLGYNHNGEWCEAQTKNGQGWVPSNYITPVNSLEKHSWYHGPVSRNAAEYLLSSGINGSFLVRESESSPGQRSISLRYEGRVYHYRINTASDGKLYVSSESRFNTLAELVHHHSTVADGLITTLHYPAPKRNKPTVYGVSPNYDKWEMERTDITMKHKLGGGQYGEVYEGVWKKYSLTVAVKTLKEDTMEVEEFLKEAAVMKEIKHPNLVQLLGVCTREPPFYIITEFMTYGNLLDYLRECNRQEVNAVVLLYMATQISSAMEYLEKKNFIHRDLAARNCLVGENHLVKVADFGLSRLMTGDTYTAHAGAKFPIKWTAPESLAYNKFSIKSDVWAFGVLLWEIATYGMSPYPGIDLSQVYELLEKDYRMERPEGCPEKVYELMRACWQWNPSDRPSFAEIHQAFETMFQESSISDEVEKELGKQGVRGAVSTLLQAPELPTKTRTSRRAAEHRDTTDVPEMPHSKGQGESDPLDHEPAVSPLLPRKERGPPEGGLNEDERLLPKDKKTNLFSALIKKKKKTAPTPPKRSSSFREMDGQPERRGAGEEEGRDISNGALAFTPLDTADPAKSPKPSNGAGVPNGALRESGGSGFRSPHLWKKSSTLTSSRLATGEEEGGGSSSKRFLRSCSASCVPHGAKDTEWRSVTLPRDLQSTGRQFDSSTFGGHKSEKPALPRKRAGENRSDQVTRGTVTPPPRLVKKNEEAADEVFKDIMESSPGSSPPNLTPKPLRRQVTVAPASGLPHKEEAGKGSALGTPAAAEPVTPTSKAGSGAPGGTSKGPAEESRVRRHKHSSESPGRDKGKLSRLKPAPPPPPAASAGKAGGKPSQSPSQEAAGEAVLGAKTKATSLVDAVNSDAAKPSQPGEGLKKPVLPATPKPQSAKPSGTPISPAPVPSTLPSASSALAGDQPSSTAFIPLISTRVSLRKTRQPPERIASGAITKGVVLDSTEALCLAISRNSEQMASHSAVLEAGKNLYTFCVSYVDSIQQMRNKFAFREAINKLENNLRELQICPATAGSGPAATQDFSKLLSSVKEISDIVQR
Experimental: as §1, §2, §3

K562 leukemia cells = assay: NCI SRB antiproliferative assay, K562; format: cell-based; details: Homo sapiens, read-out: % Growth inhibition at 10 µM K562
Experimental: (§4) Six members, 3a, 3g–j, and 3q, out of the investigated compounds were further evaluated for their antiproliferative effects against human cancer cell lines, including leukemia (K562), colon cancer (HCT116), non-small cell lung (NSCL) cancer (A549, NCI-H23 and NCI-H460), and breast cancer (MCF-7 and T47D) cells. The tested cell lines’ choice depended on their elevated DDR1 expression levels. The cell lines were all treated with a 10 µM concentration of the tested compounds, and the results were expressed as the percentage of growth inhibition (%GI) (Table 4).
(§5) Inhibition of the tumor relevant carbonic anhydrases IX and XII may be one of these additional mechanisms.
(§6) The evaluation of the antiproliferative activities of compounds 3a, 3g–j, and 3q over a panel of DDR1-dependent cell lines was conducted employing the sensitive Sulforhodamine B (SRB) assay at the National Cancer Institute (NCI), Bethesda, Maryland, USA, following the standard protocol.

[2] = system: HCT116 colon cancer cells; assay: NCI SRB antiproliferative assay, HCT116; format: cell-based; details: Homo sapiens, HCT-116; read-out: % Growth inhibition at 10 µM HCT116
Experimental: as §4, §5, §6

[3] = system: A549 non-small cell lung cancer cells; assay: NCI SRB antiproliferative assay, A549; format: cell-based; details: Homo sapiens, read-out: % Growth inhibition at 10 µM A549
Experimental: as §4, §5, §6

[4] = system: NCI-H23 non-small cell lung cancer cells; assay: NCI SRB antiproliferative assay, NCI-H23; format: cell-based; details: Homo sapiens, read-out: % Growth inhibition at 10 µM NCI-H23
Experimental: as §4, §5, §6

[5] = system: NCI-H460 non-small cell lung cancer cells; assay: NCI SRB antiproliferative assay, NCI-H460; format: cell-based; details: Homo sapiens, read-out: % Growth inhibition at 10 µM NCI-H460
Experimental: as §4, §5, §6

[6] = system: MCF-7 breast cancer cells; assay: NCI SRB antiproliferative assay, MCF-7; format: cell-based; details: Homo sapiens, MCF7; read-out: % Growth inhibition at 10 µM MCF-7
Experimental: as §4, §5, §6

T47D breast cancer cells [7] = assay: NCI SRB antiproliferative assay, T47D; format: cell-based; details: Homo sapiens, read-out: % Growth inhibition at 10 µM T47D
Experimental: as §4, §5, §6

[8] = system: DDR1-dependent cancer cell lines; assay: NCI SRB antiproliferative assay, whole panel of DDR1-dependent cell lines; format: cell-based, human; details: 10 µM, span over the seven cell lines
Experimental: as §4, §5, §6

[9] = system: HCT116 colon cancer cells; details: reported data ref 20; cited from earlier work
[10] = system: A549 non-small cell lung cancer cells; details: reported data ref 20; cited from earlier work
T47D breast cancer cells [11] = details: reported data ref 20; cited from earlier work
DDR1 [12] = molecular target: T1, DDR1; set-up: purchased Reaction Biology Corporation (RBC, Malvern, PA, USA); details: cited from earlier work

inhibition at 10 µM (DDR1 [1]): 5.83%
inhibition at 10 µM (DDR2): 0.78%
Compound: O=C(Nc1ccc2oc(=O)ccc2c1)Nc1ccc(F)cc1F [Compound 3m]

inhibition at 10 µM (DDR1 [1]): 10.7%
inhibition at 10 µM (DDR2): 8.02%
Compound: Cc1cc(Cl)ccc1NC(=O)Nc1ccc2oc(=O)ccc2c1 [Compound 3n]

inhibition at 10 µM (DDR1 [1]): 15.7%
inhibition at 10 µM (DDR2): -1.4%
Compound: Cc1cccc(Cl)c1NC(=O)Nc1ccc2oc(=O)ccc2c1 [Compound 3o]

inhibition at 10 µM (DDR1 [1]): 15%
inhibition at 10 µM (DDR2): 17.1%
Compound: O=C(Nc1ccc2oc(=O)ccc2c1)Nc1c(Br)cc(F)cc1Br [Compound 3p]

Compound: O=C(Nc1cccc(OC(F)(F)F)c1)Nc1ccc2oc(=O)ccc2c1 [Compound 3q, 1-(2-Oxo-2H-chromen-6-yl)-3-(3-(trifluoromethoxy)phenyl)urea]
%EI c-Kit kinase (c-Kit kinase): 75.59%
%EI TrkA kinase (TrkA kinase): 46.95%
inhibition at 10 µM (ABL1 kinase): < 25%
inhibition at 10 µM (K562 leukemia cells): 67.1%
inhibition at 10 µM [2]: 66.3%
inhibition at 10 µM [3]: 45.6%
inhibition at 10 µM [4]: 56.6%
inhibition at 10 µM [5]: 69.9%
inhibition at 10 µM [6]: 57%
inhibition at 10 µM (T47D breast cancer cells [7]): 69.4%
%GI over all tested cell lines [8]: 45.65–69.93%
IC50 (DDR1 [1]): 191 nM
SI: Selectivity index (IC50 DDR2/IC50 DDR1) (DDR1 [1]; DDR1 over DDR2): 26.6
inhibition at 10 µM (DDR1 [1]): 87.4%
IC50 (DDR2): 5080 nM
inhibition at 10 µM (DDR2): 70.1%

inhibition at 10 µM (DDR1 [1]): 5.82%
inhibition at 10 µM (DDR2): 3.77%
Compound: O=C(Nc1ccc2oc(=O)ccc2c1)c1ccc(Cl)c(C(F)(F)F)c1 [Compound 4a]

inhibition at 10 µM (DDR1 [1]): 12.6%
inhibition at 10 µM (DDR2): 6.06%
Compound: O=C(Nc1ccc2oc(=O)ccc2c1)c1cc(C(F)(F)F)cc(C(F)(F)F)c1 [Compound 4b]

inhibition at 10 µM (DDR1 [1]): 22.4%
inhibition at 10 µM (DDR2): 17%
Compound: O=C(Nc1ccc2oc(=O)ccc2c1)c1cc(F)cc(F)c1 [Compound 4c]

IC50 (DDR2): 59.7 nM
Compound: CCN1CCN(Cc2ccc(C(=O)Nc3ccc(C)c(Oc4ccc5c(c4)CC(=O)N5)c3)cc2C(F)(F)F)CC1 [DDR1-IN-1]
GI50 [9]: 8.7 µM
GI50 [10]: > 10 µM
GI50 (T47D breast cancer cells [11]): > 10 µM

Compound: O=C(Nc1cccc(Cl)c1)Nc1cc2ncncc2cc1OCc1cccc(F)c1 [KST9046]
IC50 (DDR1 [12]): 4380 nM

Compound: CCN1CCN(Cc2ccc(NC(=O)Nc3nc4ccc(Oc5ccnc(C(=O)NC)c5)cc4s3)cc2C(F)(F)F)CC1 [KST016366]
IC50 (DDR1 [12]): 26.5 nM

IC50 (DDR2): 1.55 nM
Compound: Cn1ccc(-c2cncc(CNc3cc(C(=O)Nc4cccc(OC(F)(F)F)c4)ccc3F)c2)n1 [VU6015929, reference compound]
